What was measured:
Type in all cases: cell-based
human primary T cells [1] = test: IL15-dependent expansion: T cell numbers and CD4/CD8 ratio by flow cytometry; settings: media alone
Protocol: (§1) To test IL15-dependent expansion, beads were removed on day 10 and cells were washed. […] The T cell numbers (Table 30) and the change in CD4/CD8 ratio (Table 31) were determined by flow cytometry.

human primary T cells [2] = test: Expression of IL15 chimeric constructs by flow cytometry (percent IL15 positive cells); settings: for Percent of cells IL15 positive: media alone
Excerpt: In vitro activity of IL15 chimeric constructs OT-002019 ((Met; CD34 (aa 1-32 of WT, M1G, S32A); IL15 (30-162 of WT); Linker ((GS)15); CD8a Hinge and Transmembrane Domain; Linker (GS); stop), amino acid SEQ ID NO: 210876, nucleic acid SEQ ID NO: 210877) and OT-002090 ((Ig Kappa light chain leader; IL15 (49-162 of WT); Linker ((GS)15); B7-1 Hinge, Transmembrane Domain and Tail; Linker (GS); stop), amino acid SEQ ID NO: 210878, nucleic acid SEQ ID NO: 210879) and CA2 regulated IL15 chimeric construct (OT-002094) were tested in human primary T cells. Human primary T cells were transduced with lentivirus 24 hours after activation with CD3/CD28 beads. Cells were expanded for 10 days. […] The percentage of IL15 positive cells obtained for each treatment group is as follows (a) OT-002019: 82.3% (b) OT-002090: 43.6% (c) OT-002094 with DMSO: 0.7% (d) OT-002094 with 10 μM Acz: 27.9% and (e) untransduced (UT): 0.3%.
as §1

NIH3T3 cells = test: Destabilization mutant screening of human CA2 linked to GFP, ligand response by FACS (Valdecoxib, Celecoxib, Acetazolamide)
Protocol: To identify destabilizing mutations of human CA2 that are stabilized upon ligand binding to CA2, two rounds of mutant screening were performed, using a lentivirus CA2 mutant library provided by Genscript (China). These methods were used to generate a library of mutant polypeptides using mutagenesis primers and error prone PCR. Lentiviral vectors expressing the template, wild-type human CA2 operably linked to GFP(OT-001986) was also provided by Genscript along with the CA2 mutant library. The library was packaged into lentivirus, transduced into NIH3T3 cells at a multiplicity of infection (MOI) of approximately 0.3 and select stable cell pools were derived by selecting with selection marker puromycin.
To identify cell pools containing destabilizing mutants of CA2 that are stabilizing when CA2 is bound to its corresponding ligand, cells were sorted using FACS. In the initial round, the bottom 15% of population that was GFP negative in the absence of ligand was selected. Cells were expanded and then treated with 10 μM Celecoxib for 24 hours and harvested for cell sorting. The top 11% GFP positive cells which were also responsive to ligand treatment compared to untreated were collected. Celecoxib was removed from the cultures and replaced with DMSO. […] Genomic DNA was isolated and amplified CA2 mutants were reintroduced to the lentiviral vectors where CA2 was operably linked to GFP. The constructs were transduced into NIH3T3 cells with lentivirus vectors for each clone. The cells were treated with 10 μM Valdecoxib or 10 μM Celecoxib for 24 hours and analyzed by FACS. […] In Table 25, the Construct ID (OT-XXXXXX) refers to the construct which includes the referenced CA2 mutant and the Library ID (LibCXXXXXX) refers to the CA2 mutant itself.
The response of NIH3T3 cells to varying doses of Valdecoxib or Celecoxib for 24 hours was measured and analyzed by FACS.
Clones treated with different ligands were compared to examine the behavior of each mutant with the ligands.

[3] = NIH3T3, 10 μM Celecoxib vs DMSO
[4] = NIH3T3, 10 μM Valdecoxib vs DMSO

Substance: (Ig Kappa light chain leader; IL15 (49-162 of WT); Linker ((GS)15); B7-1 Hinge, Transmembrane Domain and Tail; Linker (GS); stop) [OT-002090]
- CD4/CD8 Ratio (human primary T cells [1]; day 0 in culture): 3.79
- T Cell Numbers (human primary T cells [1]; day 0 in culture): 1.0E+06
- CD4/CD8 Ratio (human primary T cells [1]; day 3 in culture): 0.66
- T Cell Numbers (human primary T cells [1]; day 3 in culture): 1.3E+06
- CD4/CD8 Ratio (human primary T cells [1]; day 7 in culture): 0.09
- T Cell Numbers (human primary T cells [1]; day 7 in culture): 4.1E+06
- CD4/CD8 Ratio (human primary T cells [1]; day 10 in culture): 0.04
- T Cell Numbers (human primary T cells [1]; day 10 in culture): 1.0E+07
- Percent of cells IL15 positive (human primary T cells [2]; day 0 in culture): 30%
- Percent of cells IL15 positive (human primary T cells [2]; day 3 in culture): 40%
- Percent of cells IL15 positive (human primary T cells [2]; day 7 in culture): 38%
- Percent of cells IL15 positive (human primary T cells [2]; day 10 in culture): 16%
- percentage of IL15 positive cells (human primary T cells [2]; human primary T cells, day 6, no ligand stated): 43.6%

Substance: CA2 (aa 2-260 of WT, G12R) [LibC000211]
- Median PE (NIH3T3 cells; NIH3T3, 10 μM Celecoxib): 20800
- SR (stabilization ratio) (NIH3T3 cells; [3]): 1.6
- Median PE (NIH3T3 cells; NIH3T3, 10 μM Valdecoxib): 19800
- SR (stabilization ratio) (NIH3T3 cells; [4]): 1.52
- MFI, comparative analysis, normalized to parental day 1 (NIH3T3 cells; NIH3T3, Celecoxib μM (concentration not given)): 16550.54
- MFI, comparative analysis (NIH3T3 cells; NIH3T3, DMSO): 10344.09
- Median PE (NIH3T3 cells; NIH3T3, DMSO): 13000
- SR (stabilization ratio) (NIH3T3 cells; NIH3T3, DMSO (reference)): 1
- MFI, comparative analysis, normalized to parental day 1 (NIH3T3 cells; NIH3T3, Valdecoxib μM (concentration not given)): 15754.84

Substance: CA2 (aa 2-260 of WT, H17D, P30S, G81V, K132R, S151I, A152D, A173G, W191*) [LibC000191]
- Median PE (NIH3T3 cells; NIH3T3, 10 μM Celecoxib): 173
- SR (stabilization ratio) (NIH3T3 cells; [3]): 1.08
- Median PE (NIH3T3 cells; NIH3T3, 10 μM Valdecoxib): 177
- SR (stabilization ratio) (NIH3T3 cells; [4]): 1.11
- Median PE (NIH3T3 cells; NIH3T3, DMSO): 160
- SR (stabilization ratio) (NIH3T3 cells; NIH3T3, DMSO (reference)): 1

Substance: CA2 (aa 2-260 of WT, L47R) [LibC000220]
- Median PE (NIH3T3 cells; NIH3T3, 10 μM Celecoxib): 384
- SR (stabilization ratio) (NIH3T3 cells; [3]): 1.2
- Median PE (NIH3T3 cells; NIH3T3, 10 μM Valdecoxib): 408
- SR (stabilization ratio) (NIH3T3 cells; [4]): 1.31
- Median PE (NIH3T3 cells; NIH3T3, DMSO): 311
- SR (stabilization ratio) (NIH3T3 cells; NIH3T3, DMSO (reference)): 1

Substance: CA2 (aa 2-260 of WT, N61R, K80M, K212N, N231T, L250P) [LibC000198]
- Median PE (NIH3T3 cells; NIH3T3, 10 μM Celecoxib): 535
- SR (stabilization ratio) (NIH3T3 cells; [3]): 1.95
- Median PE (NIH3T3 cells; NIH3T3, 10 μM Valdecoxib): 552
- SR (stabilization ratio) (NIH3T3 cells; [4]): 2
- Median PE (NIH3T3 cells; NIH3T3, DMSO): 275
- SR (stabilization ratio) (NIH3T3 cells; NIH3T3, DMSO (reference)): 1

Substance: CA2 (aa 2-260 of WT, S73F) [LibC000212]
- Median PE (NIH3T3 cells; NIH3T3, 10 μM Celecoxib): 30700
- SR (stabilization ratio) (NIH3T3 cells; [3]): 1.02
- Median PE (NIH3T3 cells; NIH3T3, 10 μM Valdecoxib): 30700
- SR (stabilization ratio) (NIH3T3 cells; [4]): 1.02
- Median PE (NIH3T3 cells; NIH3T3, DMSO): 30100
- SR (stabilization ratio) (NIH3T3 cells; NIH3T3, DMSO (reference)): 1

Substance: CA2 (aa 2-260 of WT, T35I, Y114H, P154L, D161V, P200A, F225L, E233D, W244*) [LibC000188]
- Median PE (NIH3T3 cells; NIH3T3, 10 μM Celecoxib): 225
- SR (stabilization ratio) (NIH3T3 cells; [3]): 1.09
- Median PE (NIH3T3 cells; NIH3T3, 10 μM Valdecoxib): 228
- SR (stabilization ratio) (NIH3T3 cells; [4]): 1.11
- Median PE (NIH3T3 cells; NIH3T3, DMSO): 206
- SR (stabilization ratio) (NIH3T3 cells; NIH3T3, DMSO (reference)): 1

From patent US20230026259A1, “CA2 COMPOSITIONS AND METHODS FOR TUNABLE REGULATION” (Obsidian Therapeutics, Inc., priority 2019, published 2023)
